Patent publication US20050124620A1, “Pharmaceutical compounds” (priority 2002, published 2005)

Key:
α p38 = α p38 (Homo sapiens, UniProt Q16539); assay: p38 MAP kinase inhibitory activity (33P-ATP / myelin basic protein filter assay); type: biochemical; conditions: for IC50: MKK6-activated α p38, MBP substrate
Method: Compounds of the invention were tested for p38 MAP kinase inhibitory activity using the following protocol.
The reaction was allowed to proceed for fifty minutes before being stopped with an excess of ortho-phosphoric acid (30 μl at 2%). γ^33 P-ATP which remained unincorporated into the myelin basic protein was separated from phoshorylated MBP on a Mlipore (RTM) MAPH filter plate. The wells of the MAPH plate were wetted with 0.5% orthophosphoric acid, and then the results of the reaction were filtered with a Millipore vacuum filtration unit through the wells. Following filtration, the residue was washed twice with 200 μl of 0.5% orthophosphoric acid. Once the filters had dried, […] of Microscint 20™ scintillant was added, and then counted on a Packard Topcount™ counter for 30 seconds. The percentage inhibition of the p38 activity was calculated and plotted in order to determine the concentration of the test compound required to inhibit 50% of the p38 activity (IC50).

THP-1 cells = assay: Inhibition of LPS-induced TNF-α production in THP-1 cells, in vitro assay; type: cell-based; conditions: Homo sapiens; PMA-treated THP-1 cells, 1 μg/ml LPS, 6 h, TNF-α by ELISA
Method: The ability of the compounds of this invention to inhibit the TNF-α release was determined using a rninor modification of the methods described in Rawlins P., et al., “Inhibition of endotoxin-induced TNF-α production in macrophages by 5Z-7-oxo-zeaenol and other fungal resorcyclic acid lactones,” International J. of Immunopharmacology, 21, 799, (1999).
THP-1 cells, human monocytic leukaemic cell line, ECACC) were maintained in culture medium [RPMI 1640 (Invitrogen) and 2 mM L-Glutamine supplemented with 10% foetal bovine serum (Invitrogen)] at approximately 37° C. in humidified 5% CO2 in stationary culture. TBP-1 cells were suspended in culture medium containing 50 ng/ml PMA (SIGMA), seeded into a 96-well tissue culture plate (IWAKI) at 1×10^5 cells/well (100 μl/well) and incubated as described above for approximately 48 h. The medium was then aspirated, the wells washed twice in Phosphate Buffered Saline and 1 μg/ml LPS (SIGMA) in culture medium was added (200 μl/well).
Test compounds were reconstituted in DMSO (SIGMA) and then diluted with the culture medium such that the final DMSO concentration was 0.1%. […] Culture supernatants were collected and the amount of human TNF-α present was determined by ELISA (R&D Systems) performed according to the manufacturer's instructions. […]

Chain of α p38 (Q16539 whole entry): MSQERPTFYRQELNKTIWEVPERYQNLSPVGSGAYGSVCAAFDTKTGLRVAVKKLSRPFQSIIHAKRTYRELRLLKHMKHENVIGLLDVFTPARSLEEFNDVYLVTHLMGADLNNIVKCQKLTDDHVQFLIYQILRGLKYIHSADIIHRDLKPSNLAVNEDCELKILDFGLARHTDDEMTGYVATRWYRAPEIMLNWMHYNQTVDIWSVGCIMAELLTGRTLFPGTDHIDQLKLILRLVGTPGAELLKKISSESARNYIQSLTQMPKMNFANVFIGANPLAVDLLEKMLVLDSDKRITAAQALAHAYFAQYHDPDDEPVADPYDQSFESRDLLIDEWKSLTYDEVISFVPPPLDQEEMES

**Q.** For `O=C1c2ccccc2C(=O)N1c1ccc2[nH]cc(CCc3ccncc3)c2c1` [Example 24B, 5-(1-Phthalimido)-3-(2-(4-pyridyl)ethyl)indole], which inhibition at 300 µM (α p38; @ 300 μM, read-out: percentage inhibition of the p38 activity) is on record?
**A.** 25%

**Q.** With `O=C(Nc1ccc2[nH]cc(CCc3ccncc3)c2c1)c1ccc(N2CCCC2=O)cc1` [Example 26, 5-(4-(2-oxo-pyrrolidin-1-yl)benzamido)-3-(2-(4-pyridyl)ethyl)indole] as the compound, how does the inhibition at 1 µM (α p38; @ 1 μM, read-out: percentage inhibition of the p38 activity) read?
**A.** 28%

**Q.** With `O=C(Nc1ccc2[nH]cc(CCc3ccncc3)c2c1)c1ccccc1` [Example 13B, 5-Benzamido-3-(2-(pyrid-4-yl)ethyl)indole] as the compound, how does the IC50 (α p38; 50 min reaction) read?
**A.** 40 µM

**Q.** Which IC50 (α p38; 50 min reaction) does the source give for `O=[N+]([O-])c1ccc2[nH]cc(CCc3ccncc3)c2c1` [Example 6, 5-Nitro-3-(2-(4-pyridyl)ethyl)indole] here?
**A.** 300 µM

**Q.** Which IC50 (α p38; 50 min reaction) does the source give for `c1ccc2c(c1)ccn2CCc1ccncc1` [Example 19, 1-(2-(4-pyridyl)ethyl)indole] here?
**A.** 200 µM

**Q.** For `Cn1cc(CCc2ccncc2)c2ccccc21` [Example 2, 1-Methyl-3-(2-(4-pyridyl)ethyl)indole], which IC50 (α p38; 50 min reaction) is on record?
**A.** 240 µM

**Q.** How did the IC50 (α p38; 50 min reaction) turn out when `c1ccc2c(CCc3ccncc3)c[nH]c2c1` [Example 1, 3-(2-(4-Pyridyl)ethyl)indole] was run?
**A.** 33 µM

**Q.** For `O=C(Nc1ccc2c(CCc3ccncc3)c[nH]c2c1)c1cc(F)cc(N2CCOCC2)c1` [Example 15B, 6-(3-Fluoro-5-(4-morpholino)benzamido)-3-(2-(4-pyridyl)ethyl)indole], which inhibition at 3 µM (α p38; @ 3 μM, read-out: percentage inhibition of the p38 activity) is on record?
**A.** 36%

**Q.** `OCCNc1nccc(CCc2c[nH]c3ccccc23)n1` [Example 27] was tested. Which IC50 (α p38; 50 min reaction) did it give?
**A.** 38 µM

**Q.** Which IC50 (α p38; 50 min reaction) does the source give for `O=C(Nc1ccc2[nH]cc(CCc3ccncc3)c2c1)c1cccc(C(F)(F)F)c1` [Example 17B] here?
**A.** 4 µM

**Q.** With `Cc1[nH]c2ccccc2c1CCc1ccncc1` [Example 8, 2-Methyl-3-(2-(4-pyridyl)ethyl)indole] as the compound, how does the IC50 (α p38; 50 min reaction) read?
**A.** 270 µM

**Q.** Which IC50 (α p38; 50 min reaction) does the source give for `Clc1nccc(CCc2c[nH]c3ccccc23)n1` [Example 22, 3-(2-(2-Chloro-4-pyrimidinyl)ethyl)indole] here?
**A.** 120 µM

**Q.** How did the IC50 (α p38; 50 min reaction) turn out when `Cc1cccc2c(CCc3ccncc3)c[nH]c12` [Example 10, 7-Methyl-3-(2-(4-pyridyl)ethyl)indole] was run?
**A.** 35 µM

**Q.** For `Cc1cccc2[nH]cc(CCc3ccncc3)c12` [Example 9, 4-Methyl-3-(2-(4-pyridyl)ethyl)indole], which IC50 (α p38; 50 min reaction) is on record?
**A.** 111 µM

**Q.** How did the IC50 (α p38; 50 min reaction) turn out when `Cc1ccc2[nH]cc(CCc3ccncc3)c2c1` [Example 4, 5-Methyl-3-(2-(4-pridyl)ethyl)indole] was run?
**A.** 250 µM

**Q.** How did the IC50 (α p38; 50 min reaction) turn out when `CC(=O)Nc1ccc2[nH]cc(CCc3ccncc3)c2c1` [Example 7, 5-Acetamido-3-(2-(4-pyridyl)ethyl)indole] was run?
**A.** 650 µM

**Q.** `Cc1ccc(S(=O)(=O)n2cc(CCc3cccnc3)c3ccccc32)cc1` [Example 34, 1-[(4-Methylphenyl)sulphonyl]-3-(2-(3-pridyl)ethyl)indole] was tested. Which IC50 (α p38; unit stated in cell) did it give?
**A.** > 1000 µM

**Q.** For `C[C@@H](Nc1nccc(CCc2c[nH]c3ccccc23)n1)c1ccccc1` [Example 30, 3-(2-(2-((R)-(+)-α-methylbenzylamino)-4-pyrimidinyl)ethyl)idole], which IC50 (α p38; 50 min reaction) is on record?
**A.** 15 µM

**Q.** `Fc1cccc2[nH]cc(CCc3ccncc3)c12` [Example 11, 4-Fluoro-3-(2-(4-pyridyl)ethyl)indole] was tested. Which IC50 (α p38; 50 min reaction) did it give?
**A.** 45 µM

**Q.** “3-(2-(4-Pyridyl)ethyl-7-azaindole [Example 12]” was tested. Which IC50 (α p38; 50 min reaction) did it give?
**A.** 177 µM

**Q.** `c1ccc(CCc2c[nH]c3ccccc23)nc1` [Example 3, 3-(2-(2-Pyridyl)ethyl)indole] was tested. Which IC50 (α p38; 50 min reaction) did it give?
**A.** 820 µM

**Q.** `O=C(Nc1ccc2[nH]cc(CCc3ccncc3)c2c1)c1cccc(OC(F)(F)F)c1` [Example 16B, 5-(3-Trifluoromethoxybenzamido)-3-(2-(4-pyridy)ethyl)indole] was tested. Which IC50 (α p38; 50 min reaction) did it give?
**A.** 2 µM

**Q.** How did the IC50 (α p38; unit stated in cell) turn out when `CC(C)(C)c1cc(NC(=O)Nc2ccc3[nH]cc(CCc4ccncc4)c3c2)n(-c2ccccc2)n1` [Example 32, 5-(3-tert-Butyl-1-phenylpyrazol-5-ylcarbamoylamino)-3-(2-(4-pyridyl)ethyl)indole] was run?
**A.** 0.145 µM

**Q.** With `C[C@H](Nc1nccc(CCc2c[nH]c3ccccc23)n1)c1ccccc1` [Example 29, 3-(2-(2-((S)-(−)-α-methylbenzylamino)-4-pyrimidinyl)ethyl)indole] as the compound, how does the IC50 (α p38; 50 min reaction) read?
**A.** 3 µM

**Q.** How did the IC50 (α p38; 50 min reaction) turn out when `Nc1ccc2ccn(CCc3ccncc3)c2c1` [Example 25A, 6-Amino-1-(2-(4-pyridyl)ethyl)indole] was run?
**A.** 475 µM

**Q.** `CC(C)(CO)Nc1nccc(CCc2c[nH]c3ccccc23)n1` [Example 28, 3-(2-(2-(3-Hydroxy-2-methyl-prop-2-ylamino)-4-pyrimidinyl)ethyl)indole] was tested. Which IC50 (α p38; 50 min reaction) did it give?
**A.** 1.5 µM

**Q.** How did the IC50 (α p38; 50 min reaction) turn out when `O=C(Nc1ccccc1)Nc1ccc2[nH]cc(CCc3ccncc3)c2c1` [Example 20B, 5-(Phenylcarbamoylamino)-3-(2-(4-pyridyl)ethyl)indole] was run?
**A.** 28 µM

**Q.** How did the IC50 (α p38; 50 min reaction) turn out when `c1ccc2c(CCc3ccncn3)c[nH]c2c1` [Example 31, 3-(2-(4-Pyrimidinyl)ethyl)indole] was run?
**A.** 715 µM

**Q.** Which IC50 (α p38; 50 min reaction) does the source give for `O=C(Nc1ccc2[nH]cc(CCc3ccncc3)c2c1)c1ccnc(N2CCOCC2)c1` [Example 23B, 5-(2-(4-Morpholino)isonicotinamido)-3-(2-(4-pyridyl)ethyl)indole] here?
**A.** 1.3 µM

**Q.** With `Nc1ccc2[nH]cc(CCc3ccncc3)c2c1` [Example 20A, 5-Amino-3-(2-(4-pyridyl)ethyl)indole] as the compound, how does the inhibition at 1000 µM (α p38; @ 1 mM, read-out: percentage inhibition of the p38 activity) read?
**A.** 23%

**Q.** Which IC50 (α p38; 50 min reaction) does the source give for `O=C(Nc1ccc2c(ccn2CCc2ccncc2)c1)c1cc(F)cc(N2CCOCC2)c1` [Example 18B, 5-(3-Fluoro-5-(4-morpholino)benzamido)-1-(2-(4-pyridyl)ethyl)indole] here?
**A.** 3 µM

**Q.** What does the source list for `O=C(Nc1ccc2[nH]cc(CCc3ccncc3)c2c1)c1cc(F)cc(N2CCOCC2)c1` [Example 14B, 5-(3-Fluoro-5-(4-morpholino)benzamido)-3-(2-(4-pyridyl)ethyl)indole]?
**A.** IC50 (α p38; unit stated in cell): 0.5 µM; IC50 (THP-1 cells): 0.53 µM

**Q.** For `Clc1ccc2[nH]cc(CCc3ccncc3)c2c1` [Example 5, 5-Chloro-3-(2-(4-pyridyl)ethyl)indole], which IC50 (α p38; 50 min reaction) is on record?
**A.** 122 µM
